This is an account of results in patent US10919896B2, “Preparation and uses of pyrimidinone derivatives” (Cancer Research Technology Limited, priority 2016, dated 2021).

For one assay, the target named is Cdc7/Dbf4 (Homo sapiens, UniProt O00311). As to the kind of experiment: Cdc7 Biochemical Assay Method 3: Cdc7/Dbf4 Enzyme TR-FRET Assay measuring pS40MCM2. To be noted: 1 μM ATP, read-out: Biochemical Method 3 (pIC50) (converted). The essentials:
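2.5 nM Cdc7/Dbf4 incubated with 100 nM biotinylated MCM2-derived peptide and 1 μM ATP, 120 minutes at 25° C. Phospho-S40 detected by TR-FRET using anti-pS40 Mcm2 antibody, terbium anti-rabbit secondary and streptavidin-Alexa Fluor488.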
A general note: In TR-FRET formats the signal depends on donor and acceptor labels being close together.

Assay [1] deals with Cdc7 (pS40MCM2 levels in HCT116 cells). As to the kind of experiment: Cdc7 Cell Pharmacodynamics Assay Method 2A: pS40MCM2 levels in HCT116 cells, 6 hours. It is filed as cell-based. To be noted: Homo sapiens, HCT-116, read-out: Biomarker Method 2A (pEC50) (converted). From the text: (§1) This protocol describes a method to investigate the inhibition of Cdc7 activity by measuring pS40MCM2 levels in cells, after treatment with compounds.
(§2) • HCT116 cells (ATCC, #CCL-247) • McCoys 5A with L-glutamine (Cellgro, #10-050-CV) • 10% FCS (Cellgro, #35-010-CV) • D-PBS without CaCl2 and MgCl2 (Cellgro, #21-031-CV) • Trypsin/EDTA (Cellgro, #25-052-CL) • BSA (Calbiochem, 126593) • Cell Extraction Buffer (Invitrogen FNN0011) • Protease inhibitor cocktail (Sigma P-2714) • PMSF 0.3M stock in DMSO (Sigma P7626) • Antibody-rabbit pMCM2 Ser40 (Abcam, AB133243) • Antibody-goat MCM2 (Bethyl #A300-122A) • Antibody-goat Anti Rabbit IgG HRP (Thermo, 31462) • SuperSignal ELISA Pico Chemiluminescent Substrate (Perbio Science UK Ltd 37069) • 10×PBS (Growcells, MRGF-6236) • Triton X100 (Sigma, P-T8787) • DMSO (Fisher, D128-1) • 2-Propanol (J. T. Baker, 9095-03) Method • Seed 1×10^6 HCT116 cells into each of two 175 cm^2 flask containing 30 mL Cell Growth Media and incubate at 37° C., 5% CO2 for 3 days. • Harvest the cells from one T175 cm^2 flask and count. • Dilute with Cell Growth Media to a cell density of 2×10^5. Dispense 100 μL to each well (20,000 HCT116 cells/well) of TC treated 96-well plate(s). • Allow cells to settle overnight in incubator set at 37° C. and 5% CO2. • Cell treatment: Transfer 0.25 μL/well from the compound plate to the wells of the cell plate(s). This is a 1:400 dilution of compound in the assay. • Once all cells are treated place the cells back to the incubator and incubate for either 6 hours (Method 2A) or 18 hours (Method 2B). • Dilute the capture antibody (total MCM2#A300-122A) 1 in 250 in the required volume of PBS (5 mL per assay plate, plus 5 mL for dead volume) and add 50 μL to each well of a Hybond plate except wells A12 & B12. Seal the plate and incubate at room temperature for a minimum of 2 hours. • Defrost aliquot of Invitrogen Cell Extraction Buffer (FNN0011) on ice and supplement with appropriate volume of both Sigma protease inhibitor cocktail (P-2714) and PMSF (final conc 1 mM from a 1 M stock in DMSO). • After the 6 hour or 18 hour cell treatment time, tap out the media from the assay plates and place them in the −70° C. freezer for at least 5 minutes. • Flick out the remaining liquid in the previously prepared capture Ab plate(s) and add 200 μL 2% BSA per well. Incubate for 1 hour at room temperature. • Remove plates from freezer and add 20 μL of ice cold complete lysis buffer. Incubate cells for 30 minutes at 4° C. • Add 30 μL per well 2% BSA • At the end of the 1 hour incubation, wash the Capture/ELISA plate(s) with Wash Buffer on the BioTek plate washer. • Transfer 40 μL per well of the lysis plate(s) to the same wells in the Capture/ELISA plate. Incubate cells overnight at 4° C. • At the end of the overnight incubation, wash the ELISA plate(s) with Wash Buffer on BioTek plate washer. • Prepare Detection Antibody Buffer and dispense 50 μL to all wells of ELISA plate(s) except wells G1 & H1. Cover plate and incubate at room temperature for 2 hours with gentle shaking. • At the end of the 2 hour incubation, wash the ELISA plate(s) with Wash Buffer on the BioTek plate washer. • Prepare the Conjugated Antibody Buffer and dispense 50 μL to all wells of ELISA plate(s). • Cover the plate and incubate at room temperature for 1 hour with gentle shaking. • At the end of the 1 hour incubation, wash the ELISA plate(s) with Wash Buffer on the BioTek plate washer. • Prepare Substrate Buffer and dispense 50 μL to all wells of ELISA plate(s). • Incubate for a minimum of 10 minutes and read plates on the EnVision 2100 Multilabel Reader (Mirror: Luminescence (404) & Luminescence 700 (212); Measurement Height: 6.5 mm; Measurement Time: 0.2 s). Method 3

For assay [2] the test system is unchanged. As to the kind of experiment: Cdc7 Cell Pharmacodynamics Assay Method 2B: pS40MCM2 levels in HCT116 cells, 18 hours. To be noted: Homo sapiens, HCT-116, read-out: Biomarker Method 2B (pEC50) (converted). It is filed as cell-based.
Excerpt: as §1, §2

Assay [3] relates to Cdc7 (pS53MCM2 levels in SW48 cells). The assay can be described thus: Cdc7 Cell Pharmacodynamics Assay Method 3: pS53MCM2 levels in SW48 cells, 6 hours. In kind it is cell-based. As to conditions: Homo sapiens, SW48, 6 h, read-out: Biomarker Method 3 (pEC50) (converted). From the text: This protocol describes a method to investigate the inhibition of Cdc7 activity by measuring pS53MCM2 levels in cells, after treatment with compounds.
• SW48 cells • RPMI 1640 (Sigma, R5886) • 10% FCS (Sera Laboratories International Ltd, EU000F Batch:108005) • 100× L-Glutamine (Invitrogen, 25030-024) • D-Glucose Solution (10%) (Sigma, G8644) • HEPES Buffer Solution (Sigma, 83264) • Sodium Pyruvate (Sigma, S8636) • PBS (Fisger, BP399-4) • Trypsin/EDTA (Invitrogen 25300-054) • 2% BSA in PBS • Cell Extraction Buffer (Invitrogen FNN0011) • Protease inhibitor cocktail (Sigma P-2714) • PMSF 0.3M stock in DMSO (Sigma P7626) • Antibody-rabbit pMCM2 Ser53 (Bethyl #A300-756A) • Antibody-goat MCM2 (Bethyl #A300-122A) • Antibody-goat Anti Rabbit IgG HRP (Perbio Science UK Ltd 31462) • SuperSignal ELISA Pico Chemiluminescent Substrate (Perbio Science UK Ltd 37070) Method • Plate 30,000 SW48 cells per well in standard TC treated 96 well plate in 100 μL complete RPMI 1640 medium. • Allow cells to settle overnight in incubator set at 37° C. and 5% CO2. • Cell treatment: prepare a 384 well plate containing 80 μl PBS/well. The PBS should be at room temperature—to be referred to as intermediate plate. Transfer 2 μL of compound from mother plate to intermediate (daughter plate) 1:40 dilution, then 5 μL intermediate to cell (daughter) plate. • Once all cells are treated place the cells back to the incubator and incubate for 6 hours. • Dilute the capture antibody (total MCM2#A300-122A) 1 in 250 in the required volume of PBS (5 mL per assay plate, plus 5 mL for dead volume) and add 50 μL to each well of a Hybond plate. Seal the plate and incubate at room temperature for a minimum of 2 hours. • Defrost aliquot of Invitrogen Cell Extraction Buffer (FNN0011) on ice and supplement with appropriate volume of both Sigma protease inhibitor cocktail (P-2714) and PMSF (final conc 1 mM from a 1 M stock in DMSO). • After the 6 hour cell treatment time, tap out the media from the assay plates and place them in the −80° C. freezer for at least 5 minutes. • Remove plates from freezer and add 20 μL of ice cold complete lysis buffer, with the multidrop. Incubate cells for 30 minutes at 4° C. • Add 80 μL per well 2% BSA. • Flick out the remaining liquid from the capture plate and transfer 80 μL from the lysis plate to the same wells in the capture/ELISA plate, using the Biomek. Cover with plate seal and incubate plates overnight at 4° C. • Wash plates with PBS, remove any residual remaining liquid and add 50 μL per well of pMCM2 Ser53 antibody (#A300-756A) diluted 1 in 100 in 2% BSA. Cover plate and incubate at room temperature for 2 hours with gentle shaking. • Wash plates with PBS, remove any residual remaining liquid and Incubate with 50 μL goat anti rabbit antibody (1 in 800 dilution in 2% BSA), for 1 hour at room temperature. • Wash plates with PBS, remove any residual remaining liquid and add 50 μL mixed SuperSignal Pico substrate. • Incubate each plate for 5 minutes at room temperature shielding the plates from direct light (with a cover plate). Read plates with the luminescent detection.

Chain of Cdc7/Dbf4 (O00311 whole entry): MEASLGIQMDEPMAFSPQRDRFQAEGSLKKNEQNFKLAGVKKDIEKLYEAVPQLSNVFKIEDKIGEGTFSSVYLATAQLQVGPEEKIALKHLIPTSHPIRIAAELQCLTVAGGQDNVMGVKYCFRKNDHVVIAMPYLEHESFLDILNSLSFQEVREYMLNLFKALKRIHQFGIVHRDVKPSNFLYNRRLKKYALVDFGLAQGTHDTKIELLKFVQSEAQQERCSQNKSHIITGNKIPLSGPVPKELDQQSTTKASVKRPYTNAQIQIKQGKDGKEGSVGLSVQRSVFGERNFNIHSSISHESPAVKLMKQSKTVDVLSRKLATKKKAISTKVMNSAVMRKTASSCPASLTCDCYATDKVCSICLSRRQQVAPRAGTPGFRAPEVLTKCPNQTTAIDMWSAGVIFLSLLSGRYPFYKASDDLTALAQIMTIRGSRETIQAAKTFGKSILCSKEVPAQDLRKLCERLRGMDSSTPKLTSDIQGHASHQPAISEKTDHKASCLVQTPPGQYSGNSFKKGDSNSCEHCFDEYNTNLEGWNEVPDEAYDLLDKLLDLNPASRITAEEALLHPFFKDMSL
Chain of Cdc7/Dbf4 (Q9UBU7 whole entry partner): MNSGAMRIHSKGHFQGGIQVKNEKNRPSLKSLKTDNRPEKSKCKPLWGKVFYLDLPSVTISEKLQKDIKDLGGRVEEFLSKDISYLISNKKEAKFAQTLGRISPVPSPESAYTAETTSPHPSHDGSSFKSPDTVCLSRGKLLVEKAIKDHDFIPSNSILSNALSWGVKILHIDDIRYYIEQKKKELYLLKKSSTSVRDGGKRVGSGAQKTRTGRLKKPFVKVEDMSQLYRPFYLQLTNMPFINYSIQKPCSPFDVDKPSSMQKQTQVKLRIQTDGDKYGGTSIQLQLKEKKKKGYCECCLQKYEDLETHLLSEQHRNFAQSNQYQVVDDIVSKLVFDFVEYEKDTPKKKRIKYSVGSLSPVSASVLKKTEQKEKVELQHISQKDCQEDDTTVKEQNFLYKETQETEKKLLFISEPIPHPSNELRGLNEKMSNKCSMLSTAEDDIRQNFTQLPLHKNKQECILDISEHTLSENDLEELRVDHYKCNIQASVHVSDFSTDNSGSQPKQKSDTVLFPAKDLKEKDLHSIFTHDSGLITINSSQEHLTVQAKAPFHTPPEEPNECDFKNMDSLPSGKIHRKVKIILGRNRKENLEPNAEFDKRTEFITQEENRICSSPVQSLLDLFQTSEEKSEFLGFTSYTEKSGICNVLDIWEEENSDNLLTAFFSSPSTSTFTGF

As to `N[C@@H]1CCCCN(c2nc(-c3ccnc(F)c3)[nH]c(=O)c2Cl)C1` [Compound 183, 4-[(3R)-3-aminoazepan-1-yl]-5-chloro-2-(2-fluoro-4-pyridyl)-1H-pyrimidin-6-one 2,2,2-trifluoroacetic acid], the IC50 at Cdc7/Dbf4 was 0.513 nM. The EC50 in assay [1] was 148 nM.

`CN[C@@H]1CCCN(c2nc(-c3ccnc(F)c3)[nH]c(=O)c2Cl)C1` [Compound 196]: the IC50 at Cdc7/Dbf4 was 1.91 nM. In addition, the EC50 in assay [1] is 72.4 nM.

In the case of `N[C@@H]1CN(c2nc(-c3ccnc(F)c3)[nH]c(=O)c2Cl)CC[C@H]1O` [Compound 235], the IC50 at Cdc7/Dbf4 is 1.2 nM. The EC50 in assay [1] is 1120 nM.

On to `O=c1[nH]c(-c2ccnc(F)c2)nc(N2CCNCC(O)C2)c1Cl` (stereo not shown) [Compound 190], for which, on Cdc7/Dbf4, the IC50 was 0.708 nM. Besides, the EC50 in assay [1] is 741 nM.

With `O=c1[nH]c(-c2ccnc(F)c2)nc(N2CCC3NCCCC32)c1Cl` (stereo not shown) [Compound 223], the IC50 on Cdc7/Dbf4 is 2.88 nM. In addition, the EC50 in assay [1] was 56.2 nM; in assay [2], 47.9 nM.

As to `O=C1CCCN(c2nc(-c3ccnc(F)c3)[nH]c(=O)c2Cl)CC1` [Compound 203], at Cdc7/Dbf4, the IC50 was 2.95 nM. Moreover, in assay [1], the EC50 was 363 nM.

With `O=c1[nH]c(-c2ccnc(F)c2)nc(N2C3CCC2CNC3)c1Cl` [Compound 262], the IC50 at Cdc7/Dbf4 was 0.851 nM. Besides, the EC50 in assay [2] was 19.5 nM; in assay [3], 347 nM.

Consider `CC1(C)COCCN1c1nc(-c2ccnc(F)c2)[nH]c(=O)c1Cl` [Compound 339], for which, at Cdc7/Dbf4, the IC50 is 0.479 nM. The EC50 was 10.7 nM in assay [2] and 110 nM in assay [3].

For the compound `NC1CN(c2nc(-c3ccnc(F)c3)[nH]c(=O)c2Cl)CCC1F` (mixture of isomers) [Compound 252], on Cdc7/Dbf4, the IC50 was 0.617 nM. Also, in assay [1], the EC50 was 38 nM.

For `CN[C@H]1CCCN(c2nc(-c3ccnc(F)c3)[nH]c(=O)c2Cl)C1` [Compound 197], the IC50 on Cdc7/Dbf4 is 2.4 nM. Moreover, in assay [1], the EC50 is 316 nM.

Take `C[C@@H]1CCCN1c1nc(-c2ccnc(F)c2)[nH]c(=O)c1Cl` [Compound 279]: the IC50 at Cdc7/Dbf4 was 0.724 nM. Further, the EC50 is 57.5 nM in assay [2] and 1320 nM in assay [3].

Consider `O=C1CNCCN(c2nc(-c3ccnc(F)c3)[nH]c(=O)c2Cl)C1` [Compound 412, 1-[5-chloro-2-(2-fluoro-4-pyridyl)-6-oxo-1H-pyrimidin-4-yl]-1,4-diazepan-6-one 2,2,2-trifluoroacetic acid], for which the IC50 on Cdc7/Dbf4 is 0.646 nM. Moreover, the EC50 in assay [1] was 339 nM.

Take `C[C@H]1CNCCN1c1nc(-c2ccnc(F)c2)[nH]c(=O)c1Cl` [Compound 326]: the IC50 on Cdc7/Dbf4 was 0.49 nM. The EC50 in assay [1] is 40.7 nM.

As to `O=c1[nH]c(-c2ccnc(F)c2)nc(N2CCC3NCCC32)c1Cl` (stereo not shown) [Compound 243], on Cdc7/Dbf4, the IC50 was 2 nM. Moreover, the EC50 in assay [1] was 288 nM.

For `O=c1[nH]c(-c2ccnc(F)c2)nc(N2CCCNCC2)c1Cl` [Compound 206], the IC50 on Cdc7/Dbf4 is 0.0977 nM. Besides, the results for the EC50 in assay [2] and in assay [3] were 39.8 nM and 562 nM, respectively.

For `CC1(C)CNCCN1c1nc(-c2ccnc(F)c2)[nH]c(=O)c1Cl` [Compound 358], on Cdc7/Dbf4, the IC50 is 1.15 nM. Besides, the EC50 in assay [2] was 2.45 nM; in assay [3] it was 89.1 nM.

With `C[C@@H]1COCCN1c1nc(-c2ccnc(F)c2)[nH]c(=O)c1Cl` [Compound 328], the IC50 on Cdc7/Dbf4 is 0.575 nM. For the same compound, the EC50 in assay [1] is 3.89 nM.

Consider `C[C@H]1CN[C@@H](C(F)(F)F)CN1c1nc(-c2ccnc(F)c2)[nH]c(=O)c1Cl` (racemic) [Compound 378, Cis-5-chloro-2-(2-fluoro-4-pyridyl)-4-[2-methyl-5-(trifluoromethyl)piperazin-1-yl]-1H-pyrimidin-6-one], for which, on Cdc7/Dbf4, the IC50 is 5.89 nM. The EC50 in assay [2] is 437 nM; in assay [3], 2090 nM.

In the case of `CC[C@@H]1CN(c2nc(-c3ccnc(F)c3)[nH]c(=O)c2Cl)CCO1` [Compound 205], the IC50 on Cdc7/Dbf4 was 1.41 nM. Also, the EC50 in assay [1] is 275 nM.

With `O=C1CCN(c2nc(-c3ccnc(F)c3)[nH]c(=O)c2Cl)CC1` [Compound 234], on Cdc7/Dbf4, the IC50 was 1.38 nM. In addition, the EC50 in assay [1] is 38.9 nM.

On to `N[C@H]1CCCCN(c2nc(-c3ccnc(F)c3)[nH]c(=O)c2Cl)C1` [Compound 188], for which, at Cdc7/Dbf4, the IC50 was 1.74 nM. For the same compound, in assay [1], the EC50 was 170 nM.

In the case of `O=c1[nH]c(-c2ccnc(F)c2)nc(N2CCOCC(F)(F)C2)c1Cl` [Compound 286], the IC50 at Cdc7/Dbf4 is 0.229 nM. Besides, the EC50 was 15.5 nM in assay [2] and 513 nM in assay [3].
